From paper PMC12281424, “A Rac-specific competitive inhibitor of guanine nucleotide binding reduces metastasis in triple-negative breast cancer” (Cell Reports Medicine, 2025)

Legend:
CaMKIIα(h) = CaMKIIα(h) (Homo sapiens, UniProt Q9UQM7); test: Kinase Profiler; assay type: biochemical
Description: (§1) The kinase profiler was performed by the company Eurofins (Discovery, Panlab and Cerep).

PI3K (p110d/p85a)(h) = PI3K (p110d/p85a)(h) (Homo sapiens, UniProt O00329); test: Kinase Profiler; assay type: biochemical
Description: (§2) Blood cell counts, kinase profiler, safety screen, bacterial cytotoxicity, Ames, micronucleus assays were performed by the company Eurofins (France). The kinase profiler was performed by the company Eurofins (Discovery, Panlab and Cerep).

TTBK2(h) = TTBK2(h) (Homo sapiens, UniProt Q6IQ55); test: Kinase Profiler; assay type: biochemical
Description: as §1

[1] = test system: GABAA, Ro-15-1788, Hippocampus; test: Safety screen; assay type: binding, rat
Description: (§3) Blood cell counts, kinase profiler, safety screen, bacterial cytotoxicity, Ames, micronucleus assays were performed by the company Eurofins (France).

MEKK3(h) = MEKK3(h) (Homo sapiens, UniProt Q99759); test: Kinase Profiler; assay type: biochemical
Description: as §1

CHK1(h) = CHK1(h) (Homo sapiens, UniProt O14757); test: Kinase Profiler; assay type: biochemical
Description: as §1

MAPK2(h) = MAPK2(h) (Homo sapiens, UniProt P28482); test: Kinase Profiler; assay type: biochemical
Description: as §1

CDK3/cyclinE(h) = CDK3/cyclinE(h) (Homo sapiens, UniProt Q00526); test: Kinase Profiler; assay type: biochemical
Description: as §2

[2] = target: Transporter, Norepinephrine (NET) (Homo sapiens, UniProt P23975); test: Safety screen; assay type: binding
Description: as §3

Plk1(h) = Plk1(h) (Homo sapiens, UniProt P53350); test: Kinase Profiler; assay type: biochemical
Description: as §1

SRMS(h) = SRMS(h) (Homo sapiens, UniProt Q9H3Y6); test: Kinase Profiler; assay type: biochemical
Description: as §1

Endothelin ETA = Endothelin ETA (Homo sapiens, UniProt P25101); test: Safety screen; assay type: binding
Description: as §3

Cannabinoid CB2 = Cannabinoid CB2 (Homo sapiens, UniProt P34972); test: Safety screen; assay type: binding
Description: as §3

[3] = test system: GABAA, Chloride Channel, TBOB; test: Safety screen; assay type: binding, rat
Description: as §3

CK2α2(h) = CK2α2(h) (Homo sapiens, UniProt P19784); test: Kinase Profiler; assay type: biochemical
Description: as §1

MSK2(h) = MSK2(h) (Homo sapiens, UniProt O75676); test: Kinase Profiler; assay type: biochemical
Description: as §2

TNIK(h) = TNIK(h) (Homo sapiens, UniProt Q9UKE5); test: Kinase Profiler; assay type: biochemical
Description: as §1

Tie2 (h) = Tie2 (h) (Homo sapiens, UniProt Q02763); test: Kinase Profiler; assay type: biochemical
Description: as §2

Wee1(h) = Wee1(h) (Homo sapiens, UniProt P30291); test: Kinase Profiler; assay type: biochemical
Description: as §1

[4] = test system: Glutamate, NMDA, Polyamine; test: Safety screen; assay type: binding, rat
Description: as §2

Ret(h) = Ret(h) (Homo sapiens, UniProt P07949); test: Kinase Profiler; assay type: biochemical
Chain of Ret(h) (P07949 29-1114): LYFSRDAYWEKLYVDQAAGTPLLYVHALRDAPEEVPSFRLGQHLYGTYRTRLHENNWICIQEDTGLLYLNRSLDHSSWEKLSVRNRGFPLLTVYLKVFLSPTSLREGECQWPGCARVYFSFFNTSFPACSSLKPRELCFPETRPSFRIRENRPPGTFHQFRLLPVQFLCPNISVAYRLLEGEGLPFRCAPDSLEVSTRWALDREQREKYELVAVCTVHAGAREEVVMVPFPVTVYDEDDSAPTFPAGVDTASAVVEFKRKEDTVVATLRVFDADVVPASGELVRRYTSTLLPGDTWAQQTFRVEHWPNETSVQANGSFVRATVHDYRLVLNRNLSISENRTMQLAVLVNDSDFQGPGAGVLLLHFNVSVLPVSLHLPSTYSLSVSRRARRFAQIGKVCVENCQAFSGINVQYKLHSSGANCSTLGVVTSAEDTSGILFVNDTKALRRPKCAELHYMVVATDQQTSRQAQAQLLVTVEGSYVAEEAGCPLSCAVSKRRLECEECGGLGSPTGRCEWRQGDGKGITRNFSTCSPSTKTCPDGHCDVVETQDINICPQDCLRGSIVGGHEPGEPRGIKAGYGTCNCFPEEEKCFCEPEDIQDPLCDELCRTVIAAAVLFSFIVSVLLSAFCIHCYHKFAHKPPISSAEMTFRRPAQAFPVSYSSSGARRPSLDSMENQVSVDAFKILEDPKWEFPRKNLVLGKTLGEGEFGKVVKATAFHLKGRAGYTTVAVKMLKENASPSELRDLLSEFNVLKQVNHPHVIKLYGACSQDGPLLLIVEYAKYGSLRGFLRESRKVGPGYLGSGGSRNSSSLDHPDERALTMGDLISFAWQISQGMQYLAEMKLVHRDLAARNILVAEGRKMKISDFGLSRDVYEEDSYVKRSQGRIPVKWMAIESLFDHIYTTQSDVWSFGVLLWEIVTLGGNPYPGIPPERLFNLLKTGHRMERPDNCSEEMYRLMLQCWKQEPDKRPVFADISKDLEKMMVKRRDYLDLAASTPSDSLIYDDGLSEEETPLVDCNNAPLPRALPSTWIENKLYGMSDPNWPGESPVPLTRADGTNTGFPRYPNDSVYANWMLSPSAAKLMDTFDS
Description: as §1

Chain of CK2α2(h) (P19784 whole entry): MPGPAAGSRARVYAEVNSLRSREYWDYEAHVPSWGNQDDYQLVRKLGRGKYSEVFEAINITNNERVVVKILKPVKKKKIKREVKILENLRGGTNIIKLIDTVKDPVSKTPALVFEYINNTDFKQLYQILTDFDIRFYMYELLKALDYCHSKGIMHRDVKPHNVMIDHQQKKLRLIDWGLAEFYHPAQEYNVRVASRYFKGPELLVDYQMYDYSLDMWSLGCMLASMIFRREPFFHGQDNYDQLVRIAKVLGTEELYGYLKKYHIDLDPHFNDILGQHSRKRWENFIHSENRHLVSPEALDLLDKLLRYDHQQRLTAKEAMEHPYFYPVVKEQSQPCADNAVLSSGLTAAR
Chain of MAPK2(h) (P28482 whole entry): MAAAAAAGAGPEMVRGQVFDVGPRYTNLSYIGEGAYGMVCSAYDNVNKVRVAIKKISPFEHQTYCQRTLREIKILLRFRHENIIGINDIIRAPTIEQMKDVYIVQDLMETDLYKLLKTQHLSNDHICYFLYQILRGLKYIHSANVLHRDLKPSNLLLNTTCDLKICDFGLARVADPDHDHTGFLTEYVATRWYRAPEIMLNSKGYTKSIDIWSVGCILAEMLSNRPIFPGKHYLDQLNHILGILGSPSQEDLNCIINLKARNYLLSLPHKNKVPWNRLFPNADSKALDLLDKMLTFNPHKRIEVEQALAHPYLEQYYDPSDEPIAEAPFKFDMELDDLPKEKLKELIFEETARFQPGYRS
Chain of PI3K (p110d/p85a)(h) (O00329 whole entry): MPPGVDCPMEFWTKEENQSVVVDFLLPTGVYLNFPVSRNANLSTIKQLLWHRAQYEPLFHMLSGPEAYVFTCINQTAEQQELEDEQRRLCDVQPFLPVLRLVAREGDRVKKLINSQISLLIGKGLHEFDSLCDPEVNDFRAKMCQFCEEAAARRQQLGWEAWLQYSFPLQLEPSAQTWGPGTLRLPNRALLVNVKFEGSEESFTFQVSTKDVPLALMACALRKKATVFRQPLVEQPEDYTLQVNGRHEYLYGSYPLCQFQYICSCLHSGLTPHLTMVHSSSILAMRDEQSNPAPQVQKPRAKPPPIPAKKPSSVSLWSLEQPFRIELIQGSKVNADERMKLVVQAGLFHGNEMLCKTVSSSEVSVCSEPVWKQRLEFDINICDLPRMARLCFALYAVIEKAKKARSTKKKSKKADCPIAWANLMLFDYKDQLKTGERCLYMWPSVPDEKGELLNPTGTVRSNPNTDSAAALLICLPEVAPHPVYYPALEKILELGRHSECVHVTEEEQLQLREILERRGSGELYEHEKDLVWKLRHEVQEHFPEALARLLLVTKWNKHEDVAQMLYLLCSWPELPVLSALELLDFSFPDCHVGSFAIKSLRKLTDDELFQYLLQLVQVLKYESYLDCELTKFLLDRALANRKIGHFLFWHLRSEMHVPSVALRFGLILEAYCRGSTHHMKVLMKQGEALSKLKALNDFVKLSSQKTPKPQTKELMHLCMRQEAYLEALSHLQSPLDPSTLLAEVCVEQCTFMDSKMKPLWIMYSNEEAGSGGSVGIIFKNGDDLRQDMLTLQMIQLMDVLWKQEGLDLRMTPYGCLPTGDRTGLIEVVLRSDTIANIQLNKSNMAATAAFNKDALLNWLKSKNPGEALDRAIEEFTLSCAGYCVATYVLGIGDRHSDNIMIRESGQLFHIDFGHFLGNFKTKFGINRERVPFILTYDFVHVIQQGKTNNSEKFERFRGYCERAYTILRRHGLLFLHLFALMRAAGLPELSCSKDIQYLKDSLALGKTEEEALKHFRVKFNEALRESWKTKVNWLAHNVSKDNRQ
Chain of PI3K (p110d/p85a)(h) (P27986 whole entry partner): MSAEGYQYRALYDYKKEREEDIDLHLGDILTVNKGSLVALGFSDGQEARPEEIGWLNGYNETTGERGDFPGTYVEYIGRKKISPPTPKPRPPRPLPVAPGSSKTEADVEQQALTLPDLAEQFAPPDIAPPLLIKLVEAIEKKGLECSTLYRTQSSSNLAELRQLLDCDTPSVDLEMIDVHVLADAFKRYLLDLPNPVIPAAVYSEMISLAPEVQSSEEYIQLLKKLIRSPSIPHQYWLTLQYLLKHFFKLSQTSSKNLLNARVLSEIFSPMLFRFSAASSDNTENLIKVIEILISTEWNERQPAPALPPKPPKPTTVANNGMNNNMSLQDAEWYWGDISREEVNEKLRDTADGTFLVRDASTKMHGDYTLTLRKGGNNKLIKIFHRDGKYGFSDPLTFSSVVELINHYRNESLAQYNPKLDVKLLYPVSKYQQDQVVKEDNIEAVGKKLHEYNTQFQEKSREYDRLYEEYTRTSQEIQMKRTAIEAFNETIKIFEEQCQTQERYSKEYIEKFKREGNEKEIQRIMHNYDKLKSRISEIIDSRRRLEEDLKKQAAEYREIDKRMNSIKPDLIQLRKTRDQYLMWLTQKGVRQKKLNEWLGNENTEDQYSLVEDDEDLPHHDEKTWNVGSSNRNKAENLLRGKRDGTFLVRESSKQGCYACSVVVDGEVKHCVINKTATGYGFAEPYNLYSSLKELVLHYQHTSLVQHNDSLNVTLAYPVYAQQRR
Chain of TTBK2(h) (Q6IQ55 whole entry): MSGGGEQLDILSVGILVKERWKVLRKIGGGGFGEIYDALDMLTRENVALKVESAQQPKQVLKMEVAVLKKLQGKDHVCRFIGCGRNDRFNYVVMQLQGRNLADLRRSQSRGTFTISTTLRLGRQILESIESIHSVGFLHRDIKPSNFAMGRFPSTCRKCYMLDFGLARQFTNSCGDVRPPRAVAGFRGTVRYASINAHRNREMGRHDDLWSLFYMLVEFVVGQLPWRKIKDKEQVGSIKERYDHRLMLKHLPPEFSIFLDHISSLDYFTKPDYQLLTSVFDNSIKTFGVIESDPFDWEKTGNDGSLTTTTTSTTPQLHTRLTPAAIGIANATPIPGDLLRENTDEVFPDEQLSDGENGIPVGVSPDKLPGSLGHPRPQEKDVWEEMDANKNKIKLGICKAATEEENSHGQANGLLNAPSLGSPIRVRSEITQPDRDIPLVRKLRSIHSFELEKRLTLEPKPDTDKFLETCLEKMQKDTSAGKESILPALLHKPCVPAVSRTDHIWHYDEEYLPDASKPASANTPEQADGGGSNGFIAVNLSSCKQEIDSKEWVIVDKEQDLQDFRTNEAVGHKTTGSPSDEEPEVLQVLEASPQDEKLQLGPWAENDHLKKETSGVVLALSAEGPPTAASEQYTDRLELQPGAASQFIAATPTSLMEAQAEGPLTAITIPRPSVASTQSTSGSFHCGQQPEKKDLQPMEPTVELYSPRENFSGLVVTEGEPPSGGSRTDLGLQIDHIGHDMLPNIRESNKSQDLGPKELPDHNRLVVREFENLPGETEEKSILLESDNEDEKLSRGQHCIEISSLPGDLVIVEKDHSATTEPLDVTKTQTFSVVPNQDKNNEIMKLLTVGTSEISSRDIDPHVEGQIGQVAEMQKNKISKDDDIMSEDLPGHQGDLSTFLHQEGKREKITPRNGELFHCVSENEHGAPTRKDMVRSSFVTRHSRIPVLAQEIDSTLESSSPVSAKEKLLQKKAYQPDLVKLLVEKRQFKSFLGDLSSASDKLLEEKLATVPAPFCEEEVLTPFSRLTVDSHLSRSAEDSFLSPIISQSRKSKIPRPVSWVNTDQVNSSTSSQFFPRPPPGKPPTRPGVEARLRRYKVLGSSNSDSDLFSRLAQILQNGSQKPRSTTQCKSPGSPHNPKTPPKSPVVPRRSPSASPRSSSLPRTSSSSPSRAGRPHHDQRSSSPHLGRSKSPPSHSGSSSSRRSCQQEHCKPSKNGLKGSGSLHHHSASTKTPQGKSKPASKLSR

COc1ccc(OC)c(NS(=O)(=O)c2ccc(NC(=O)CCSc3ccc(C)cc3)cc2)c1 [Compound A41]
Activity(%) (CaMKIIα(h)): 99% | Activity(%) (PI3K (p110d/p85a)(h)): 100% | Activity(%) (TTBK2(h)): 106% | % inh. [1]: -12% | Activity(%) (MEKK3(h)): 109% | Activity(%) (CHK1(h)): 120% | Activity(%) (MAPK2(h)): 103% | Activity(%) (CDK3/cyclinE(h)): 77% | % inh. [2]: 36% | Activity(%) (Plk1(h)): 106% | Activity(%) (SRMS(h)): 102% | % inh. (Endothelin ETA): -8% | % inh. (Cannabinoid CB2): 36% | % inh. [3]: 45% | Activity(%) (CK2α2(h)): 109% | Activity(%) (MSK2(h)): 105% | Activity(%) (TNIK(h)): 94% | Activity(%) (Tie2 (h)): 110% | Activity(%) (Wee1(h)): 112% | % inh. [4]: 19% | Activity(%) (Ret(h)): 104%
